Assay [1] deals with T1, Human Serotonin Transporter (h5HT-T) (Homo sapiens, UniProt P31645). As to conditions: read-out: human SERT SPA binding assay Ki.
Description: (§1) MEDIA REAGENTS: Dulbecco's Modified Eagle Medium (DMEM) with High Glucose, L-Glutamine, 110 mg/L Sodium Pyruvate, Pyridoxine Hydrochloride containing: • a) 10% Fetal Bovine Serum, Heat-inactivated and Dialyzed (10,000 Mol Wt.) • b) 1% Pennicilin-streptomycin • c) 100 μg/ml Geneticin/G418 • 2. […] Immediately add 15 ml Cell Culture medium to inactivate trypsin and mix well. […] (eg. 1×T175 flask can seed 20×T175 flasks) • g) Incubate cells at 37° C., 5% CO2, in a humidified incubator. NOTE: Cells will grow to confluence within 3-4 days.
(§2) Cells are resuspended in 3 volumes of 50 mM Tris-HC1 (pH 7.4) to 1 volume of initial cell fraction • 2. Partially homogenize cells by swirling or by using transfer pipetor to make cell solution more homogenous and aliquot solution into 4 clear 50 ml polypropylene centrifuge tubes • 3. Tubes are balanced and spun down at 2,000 rpm for 10 minutes at 4° C. using the HS-4 rotor (rotor code 8) • 4. Supernatant is decanted and pellets resuspend in an additional 75 ml of 50 mM Tris-HCl (pH 7.4)→˜18 ml Tris to each of 4 tubes • 5. Spin cells again at 5, 000 rpm for minutes at 4° C. using the HS-4 rotor and decant supernatant • 6. Resuspend final pellts in appropriate volume of 50 nM Tris to yield protein concentration of ˜6 mg/ml • add 100 ml Tris to original cell suspension of 35 ml • add ˜72 ml; Tris to original cell suspension of 25 ml • 7. Add the appropriate final volume and split the cells into two/three 50 ml Falcon polypropylene tubes. Thoroughly vortex your cell suspension in these tubes to ensure homogeneity before aliquoting. • 8. Pool the samples from the 50 nl tubes into one larger flat-bottom vessel and stir constantly on ice (4° C.). • 9. While stirring, aliquot 1 ml portions out into 1.5 ml cryogenic vials. • 10. Store vials at −70° C. until subsequtn asay. Retain one aliquot for protein concentration, Kd and Bmax determination before starting experiments using new batch of cells. Proetin concentration is determined using the Lowry method.
(§3) Required buffers: • Assay buffer; 50 mM Tris HCl, 120 mM NaCl and 5 mM KCl, pH 7.4 • 2. Binding protocol: Preliminary screening assays are performed using single replicates on duplicate plates. Dose-response binding assays are performed in a single replicates on duplicate OptiPlates (Perkin Elmer) using 0.1 nM to 3 μM of test drug.
(§4) a) To each well add 10 μL of test compound, blank compound (10 μM Fluoxetine), or assay buffer (50 mM Tris HCl, 120 mM NaCl and 5 mM KCl, pH 7.4. Each well is then supplemented with 40 μL of assay buffer.
(§5) The isotope solution is also disuted in 50 mM Tris HCl, 120 mM NaCl and 5 mM KCl, pH 7.4 • c) Resuspend membrane pellet in binding buffer to achieve a solution containing 5 μg of protein in 50 μL. This will yield a final protein concentration of 5 μg/well. • d) To each well add 0.5 mg of Wheatgerm Agglutinin (WGA) SPA beads in 50 μl of 50 mM Tris HCl, 120 mM NaCl and 5 mM KCl, pH 7.4 • e) Incubate plates, while gently shaking, for at least 1 hour so as to reach equilibrium. Plates can still be read if left to incubate overnight without loss of signal. • f) Count plates on TopCount.
(§6) 3H-Citallopram binding is expressed as percent of specific binding, with IC50 and Ki VALUES DETERMINED BY nonlinear regression analysis using the Activity Base software package. Specific binding is defined as total binding observed in the presence of 10 μM fluoxetine.
The next assay addresses T2, h-5HT1A (Homo sapiens, UniProt P08908).
T2 construct: expressed in transfected cells; host or cells: CHO cells grown in suspension in a 10 liter bioreactor
T2 sequence (P08908 1-422): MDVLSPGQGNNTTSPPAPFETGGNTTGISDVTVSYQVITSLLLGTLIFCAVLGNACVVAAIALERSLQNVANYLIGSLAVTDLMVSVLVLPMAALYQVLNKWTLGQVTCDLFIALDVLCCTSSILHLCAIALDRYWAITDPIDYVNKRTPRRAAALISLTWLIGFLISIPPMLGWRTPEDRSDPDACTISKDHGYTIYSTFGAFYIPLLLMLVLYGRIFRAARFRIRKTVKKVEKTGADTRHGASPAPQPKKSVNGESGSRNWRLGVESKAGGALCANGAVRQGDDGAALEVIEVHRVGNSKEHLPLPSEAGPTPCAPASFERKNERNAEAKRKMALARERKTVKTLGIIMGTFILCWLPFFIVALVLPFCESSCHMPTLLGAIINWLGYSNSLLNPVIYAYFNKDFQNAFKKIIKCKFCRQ
In words: 5HT1A receptor SPA binding assay, [3H]-OH DPAT, CHO cell membranes. The settings on record: [3H]-OH DPAT 3 nM. As to the method: Determination of the Inhibitory Activity of Compounds at the Serotonin 5HT1A Receptor Subtype using Scintillation Proximity Assay (SPA) Technology
Cells: CHO cells expressing the serotonin 5HT1A receptor subtype were grown in suspension in 10 liter bioreactor and supplied as a wet cell pellet
Binding experiments are performed in a total volume of 200 μl using a 96 well microtiter plate format (Packard Optiplate). On the day of the assay, the membranes are thawed and resuspended with enough 50 mM Tris (HCI) pH 7.5, 10 mM MgCl2, 0.2 mM EDTA, 10 μM pargyline, and 0.1% ascorbate (assay buffer) to achieve a protein concentration of 800 μg/ml. To each well of the microtiter plate, 20 μl of 10× test compound in water containing 3.3% DMSO, 3 nM of [3H]-OH DPAT (Amersham, SA: 200 Ci/mmol), 80 μg cell membrane and assay buffer are combined to achieve a volume of 150 μl. Assay buffer and 10 μM cold 5-HT are substituted for the test compound in separate wells to define ‘total’ and ‘nonspecific’ bindings, respectively. The incubation period is initiated by the addition of 50 μl of 10 mg/ml PVT WGA SPA beads (RPNQ0060, Amersham GE Healthcare) resuspended in assay buffer for a final concentration of 0.5 mg/well. The plates are sealed and gently shaken at room temperature using an orbital shaker (setting 1.5) until equilibrium is achieved (2 h-overnight incubation). Radioactivity (CPM) is measured by Packard TopCount (1 min counting time/well).
Specific binding is described as the total radioactivity bound less the amount bound in the presence of 10 μM 5HT, referred to as non-specific binding (NSB). Binding in the presence of varying concentrations of test compounds is expressed as percent of specific binding in the absence of compound.
{(Bound−NSB)/(Total−NSB)}×100=% Total
Regression analysis of % bound data from ten concentrations is performed in GraphPad Prism, XL Fit or equivalent software. IC50 values are calculated using a four-parameter logistic curve fitting model and Ki values are calculated by the Cheng-Prusoff equation below: […]
where L is the nM concentration of the radioactive ligand used and the Kd is the dissociation constant of the ligand for the receptor. The Kd for [3H-OH DPAT in the SPA binding format is 3 nM. • Single dose
Percent inhibition: The displacement of […] by the test compound at h5-HT1A as determined by: [(Total DPM−compound DPM)/(Total DPM−NSB DPM)]×100. • Conc.: concentration of test compound; NBS: non-specific binding; DPM: disintegrations per min

A further assay concerns the target T3, human 5HT1A receptors (Homo sapiens, UniProt P08908).
T3 construct: expressed in transfected cells; host or cells: CHO cells
T3 sequence (P08908 1-422): T2 sequence (P08908 1-422)
The assay is described as follows: Displacement of [3H] 8-OH-DPAT from 5HT1A receptor, CHO cells stably transfected with human 5HT1A receptors. The assay is classed as binding. As to conditions: [3H] 8-OH-DPAT displacement, CHO cells with human 5HT1A; read-out: 5HT1A Receptor Affinity Ki. The text has this:
High affinity for the serotonin 5HT1A receptor was established by testing the claimed compound's ability to displace [^3H] 8-OH-DPAT (dipropylamino-tetralin) from the 5HT1A serotonin receptor following a modification of the procedure of Hall et al., J. Neurochem. 44, 1685 (1985) which utilizes CHO cells stably transfected with human 5HT1A receptors.
On the technique in general: Displacement assays read how much labelled ligand stays bound in the presence of the test substance.

The target in assay [2] is T4, cloned human 5HT1A receptors (Homo sapiens, UniProt P08908).
T4 construct: expressed in transfected cells
T4 sequence (P08908 1-422): T2 sequence (P08908 1-422)
The assay is described as follows: 35S-GTPγS binding assay, agonist/antagonist activity at 5HT1A receptors. The assay is classed as biochemical. As to the method:
Determination of […] or Antagonist Activity at 5HT1A Receptors
Antagonist or antagonist activity at 5HT1A receptors was established by using a ^35S-GTPγS binding assay similar to that used by Lazareno and Birdsall (Br. J. Pharmacol. 109: 1120, 1993), in which the test compound's ability to affect the binding of ^35S-GTPγS to membranes containing cloned human 5HT1A receptors was determined. Agonists produce an increase in binding whereas antagonists produce no increase but rather reverse the effects of the standard agonist 8-OH-DPAT. The test compound's maximum inhibitory effect is represented as the Imax, while its potency is defined by the IC50. The results of the three standard experimental test procedures described in the preceding three paragraphs were as follows: […]
A general note: GTPγS is a poorly hydrolysed GTP analogue; its binding reports G protein activation.

Another assay has as its target T5, serotonin transporter (Rattus norvegicus, UniProt P31652).
T5 construct: displace ^3H-paroxetine from male rat frontal cortical membranes; from tissue; host or cells: male rat frontal cortex membranes
The assay is described as follows: Displacement of 3H-paroxetine from male rat frontal cortical membranes (serotonin transporter affinity). Type of assay: binding. As to conditions: 3H-paroxetine displacement, read-out: 5-HT Transporter Affinity Ki. The text has this:
Affinity of Compounds of the Invention for the Serotonin Transporter

Assay [3] has as its target T1, Human Serotonin Transporter (h5HT-T). In words: biochemical.
Description: as §1, §2, §3, §4, §5, §6

Where a name gives a salt, the structure may show the parent alone. Read-outs that look alike come from different tables or passages of the source.

Here are results for 4 compounds from patent US20090042874A1, “ANTIDEPRESSANT HETEROARYL DERIVATIVES OF HETEROCYCLE-FUSED BENZODIOXANS” (WYETH, priority 2007, published 2009).

Broadly, the Ki is the dissociation constant of the complex between target and ligand, obtained from inhibition or displacement. By IC50 is commonly meant the point on the concentration scale where inhibition reaches its midpoint.

T1 sequence (P31645 whole entry): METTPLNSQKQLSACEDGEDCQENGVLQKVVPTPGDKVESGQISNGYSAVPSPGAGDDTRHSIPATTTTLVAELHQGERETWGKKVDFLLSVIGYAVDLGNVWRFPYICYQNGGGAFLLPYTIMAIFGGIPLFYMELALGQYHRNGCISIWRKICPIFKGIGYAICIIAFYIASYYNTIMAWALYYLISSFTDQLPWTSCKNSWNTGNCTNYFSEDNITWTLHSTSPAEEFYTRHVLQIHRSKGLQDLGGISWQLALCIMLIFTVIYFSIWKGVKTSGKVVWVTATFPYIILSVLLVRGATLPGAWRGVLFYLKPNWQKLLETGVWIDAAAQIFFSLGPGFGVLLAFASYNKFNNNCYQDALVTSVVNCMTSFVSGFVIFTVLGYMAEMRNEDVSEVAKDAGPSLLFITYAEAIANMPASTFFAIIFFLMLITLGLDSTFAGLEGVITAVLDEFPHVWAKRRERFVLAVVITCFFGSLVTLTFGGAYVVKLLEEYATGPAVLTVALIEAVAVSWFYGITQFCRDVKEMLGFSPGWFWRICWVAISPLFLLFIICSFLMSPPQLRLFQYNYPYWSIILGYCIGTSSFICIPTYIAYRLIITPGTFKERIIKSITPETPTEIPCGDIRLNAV
T5 sequence (P31652 whole entry): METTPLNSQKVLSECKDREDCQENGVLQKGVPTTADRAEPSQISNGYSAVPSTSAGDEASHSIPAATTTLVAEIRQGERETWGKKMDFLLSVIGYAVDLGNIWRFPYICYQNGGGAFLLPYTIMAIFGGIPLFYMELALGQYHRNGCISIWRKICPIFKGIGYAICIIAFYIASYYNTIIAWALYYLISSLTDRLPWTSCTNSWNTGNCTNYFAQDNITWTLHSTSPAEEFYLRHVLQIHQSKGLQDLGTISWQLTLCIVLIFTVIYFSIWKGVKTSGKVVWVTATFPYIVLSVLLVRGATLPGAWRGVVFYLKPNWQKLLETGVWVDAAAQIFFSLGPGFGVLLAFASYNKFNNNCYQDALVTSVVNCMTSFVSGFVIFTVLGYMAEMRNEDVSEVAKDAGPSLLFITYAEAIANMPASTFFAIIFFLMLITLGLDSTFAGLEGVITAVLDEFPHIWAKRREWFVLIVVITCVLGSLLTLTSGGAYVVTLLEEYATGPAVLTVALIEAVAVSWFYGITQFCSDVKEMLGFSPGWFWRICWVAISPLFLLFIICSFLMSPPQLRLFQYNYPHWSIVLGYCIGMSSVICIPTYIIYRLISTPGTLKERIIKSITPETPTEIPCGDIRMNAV

Consider “8-Fluoro-6-[(1-{[(2S)-8-methyl-2,3-dihydro[1,4]dioxino[2,3-f]quinolin-2-yl]methyl}piperidin-4-yl)methyl]-2H-1,4-benzoxazin-3(4H)-one [Example 21a]”, for which the results for the Ki (in assay [1]; at h-5HT1A) were 68.2 nM and 15.5 nM, respectively.
Consider `Cc1ccc2c3c(ccc2n1)OC[C@H](CN1CCC(Oc2ccc4c(c2)NC(=O)CO4)CC1)O3` [Example 1, 6-[(1-{[(2S)-8-methyl-2,3-dihydro[1,4]dioxino[2,3-f]quinolin-2-yl]methyl}piperidin-4-yl)oxy]-2H-1,4-benzoxazin-3(4H)-one dihydrochloride salt], for which the Ki on human 5HT1A receptors was 0.26 nM; on serotonin transporter it was 9.5 nM. In assay [2] (reversal of 8-OH-DPAT effect, read-out: 5HT1A Function IC50), the 50% inhibitory concentration (IC50) stood at 59.3 nM. In addition, the “5HT1A Function Imax (maximum inhibitory effect)” value in assay [2] (value in parentheses) is on record as 97.
For `Cc1ccc2c3c(ccc2n1)OC[C@H](CN1CCC[C@H](Oc2ccc4c(c2)NC(=O)CO4)C1)O3` [Example 26, 6-{[(3S)-1-{[(2S)-8-Methyl-2,3-dihydro[1,4]dioxino[2,3-f]quinolin-2-yl]methyl}piperidin-3-yl]oxy}-2H-1,4-benzoxazin-3(4H)-one], the Ki turned out to be 376 nM in assay [3] and 361 nM on h-5HT1A.
In the case of “8-Fluoro-6-[(1-{[(2S)-8-methyl-2,3-dihydro[1,4]dioxino[2,3-f]quinolin-2-yl]methyl}piperidin-4-yl)methyl]-2H-1,4-benzoxazin-3(4H)-one [Example 21b]”, the values for the Ki (in assay [1]; at h-5HT1A) were 1.74 nM and 1.12 nM, respectively.
